In the NIST ThermoML archive (doi:10.1016/j.fluid.2015.04.021):

Legend:
[1] = Liquid; for viscosity: Falling or rolling sphere viscometry; for mass density: Vibrating tube method
[2] = cn = amount concentration of the nth substance listed, in mol/dm3; details: 101.3 kPa, Liquid, Falling or rolling sphere viscometry, c2 = 0

NCCO [2-aminoethan-1-ol]
[1], 101.33 kPa
Details	mass density [kg/m3]	viscosity [mPa·s]
303.15 K	1007.7	14.61
313.15 K	999.8	9.724
323.15 K	991.7	6.807
333.15 K	983.7	4.97
343.15 K	975.5	3.784

O [water]
[1], 101.3 kPa
Details	viscosity [mPa·s]
293.15 K	1.002
298.15 K	0.8908
303.15 K	0.799
308.15 K	0.722
313.15 K	0.6564
318.15 K	0.6009

O [water] + NCCCC[C@H](N)C(=O)[O-].[K+]
[2]
Details	viscosity [mPa·s]
298.15 K	0.8908
303.15 K	0.799
308.15 K	0.722
313.15 K	0.6564
318.15 K	0.6009

O [water] + O=C([O-])[C@@H]1CCCN1.[K+]
[2]
Details	viscosity [mPa·s]
298.15 K	0.8908
303.15 K	0.799
308.15 K	0.722
313.15 K	0.6564
318.15 K	0.6009
